Results published in patent US7795286B2 (L'Oreal, priority 2004, dated 2010).

Test system: keratinocytes
Assay: Active photoprotection towards UVA-induced oxidative stress on keratinocytes (DCFH-DA fluorescent probe)
Type: cell-based
Details: for % of fluorescence relative to the control cells exposed to UVA, TEST 1 / % of fluorescence relative to the control cells exposed to UVA, TEST 2 / % of fluorescence relative to the control cells exposed to UVA, TEST 3 / % of fluorescence relative to the control cells exposed to UVA, Mean: 24 h pre-incubation; for % of fluorescence relative to the control cells exposed to UVA, TEST 1 / % of fluorescence relative to the control cells exposed to UVA, TEST 2 / % of fluorescence relative to the control cells exposed to UVA, TEST 3: DCF fluorescence after UVA; for % of fluorescence relative to the control cells exposed to UVA, Mean: mean of 3 tests
Method: The technique for evaluating the photo-protection is performed according to a well-known method (J. of Photochemistry and Photobiology B: Biology 57 (2000) 102-112 TOBI et al: Glutathione modulates the level of free radicals produced in UVA irradiated cells). This technique uses a fluorescent probe as a marker of the global intracellular oxidative stress, 2′,7′-dichlorofluoresceine diacetate (DCFH-DA).
The use of DCFH-DA as an oxidative stress marker is based on its physicochemical properties. It is a non-ionic apolar molecule capable of diffusing across cell membranes. Once inside the cell, DCFH-DA is hydrolysed by intracellular esterases to a non-fluorescent compound: DCFH or 2,7-dichlorofluoresceine. In the presence of activated oxygen species, DCFH is rapidly oxidized to a highly fluorescent compound: DCF or 2,7-dichlorofluoresceine.
At confluence, the keratinocytes are incubated in the presence of the compound of Example 1 for 24 hours at 37° C., 5% CO2, in the culture medium, according to a dose effect (3 concentrations). • 2. Incorporation of DCFH-DA
The keratinocytes, pretreated with the test compound, are rinsed and then incubated in the presence of DCFH-DA in the dark. • 3. Exposure to UVA
After this incubation, the DCFH-DA solution is removed and the cells are then exposed to UVA.
Comment: an unexposed control plate is kept in darkness at room temperature.
The fluorescence of the DCF is evaluated immediately after the exposure to UVA, by spectro-fluorimetry (excitation: 480 nm; emission: 530 nm). • 5. Results:
The results are expressed in Table 1 below, as a % of fluorescence relative to the control cells exposed to UVA.
The test described in Example 6 above was performed under the same conditions on R-2-oxothiazolidine-4-carboxylic acid (Compound A) and on an alkyl derivative thereof, described in patent U.S. Pat. No. 6,004,543 (Compound B).

Compound: O=C1N[C@H](C(=O)O)CS1 [Compound A, R-2-oxothiazolidine-4-carboxylic acid, reference compound]
- Measurement of the intracellular Red/Ox balance: % reduction in the fluorescence of the DCFH probe (at 5 mM): 16% at 5 mM

Compound: CCOC(=O)C1CSC(=O)N1 (stereo not drawn) [Compound B, reference compound]
- Measurement of the intracellular Red/Ox balance: % reduction in the fluorescence of the DCFH probe (at 7 mM, with dose effect): 37% at 7 mM with dose effect

Compound: C[Si](C)(C)COC(=O)[C@@H]1CSC(=O)N1 [Example 1]
- % of fluorescence relative to the control cells exposed to UVA, TEST 1 (100 μM): 95%
- % of fluorescence relative to the control cells exposed to UVA, TEST 2 (100 μM): 81%
- % of fluorescence relative to the control cells exposed to UVA, TEST 3 (100 μM): 75%
- % of fluorescence relative to the control cells exposed to UVA, Mean (100 μM): 84%
- % of fluorescence relative to the control cells exposed to UVA, TEST 1 (250 μM): 82%
- % of fluorescence relative to the control cells exposed to UVA, TEST 2 (250 μM): 71%
- % of fluorescence relative to the control cells exposed to UVA, TEST 3 (250 μM): 70%
- % of fluorescence relative to the control cells exposed to UVA, Mean (250 μM): 74%
- % of fluorescence relative to the control cells exposed to UVA, TEST 1 (500 μM): 75%
- % of fluorescence relative to the control cells exposed to UVA, TEST 2 (500 μM): 70%
- % of fluorescence relative to the control cells exposed to UVA, TEST 3 (500 μM): 58%
- % of fluorescence relative to the control cells exposed to UVA, Mean (500 μM): 68%
- Measurement of the intracellular Red/Ox balance: % reduction in the fluorescence of the DCFH probe (at 500 μM, with dose effect): approximately 32%
